According to patent US20100305214A1, “Use of a Monoterpene to Increase Tissue Repair” (Aisa Therapeutics, priority 2007, published 2010):

Key:
[1] = system: skin inflammation; experiment: Mouse chronic skin inflammation model (TPA); assay type: in vivo; settings: 10 mg/kg/day topical, 10 days
Protocol: 100 μl of a TPA solution were applied daily on the dorsal surfaces of mice during seven days (from J4 to J10) at a concentration of 0.2 mg/ml.
The daily topical treatment begun 3 days before the induction of skin inflammation (=Ji) and was continued 7 days after the induction of skin inflammation (=J10).
From J4 to J10, the assayed products were applied 30 minutes before the application of TPA on the same skin area.
The mice were anaesthetized by intraperitoneal injection of a mixture of Ketamine (Ketamine 1000, Virbac, Carros, France) and Xylazine (Rompun 2%, Bayer Healthcare, Kiel, Allemagne). (2/3-1/3 vol/vol) at a dosis of 8 ml/kg. Blood (1 ml) was punctured intracardiacally after the last treatment. Blood samples were stored at +4° C. during 20 to 30 minutes then centrifuged at 1500 g for 15 minutes. Serums were removed, freezed at −20° C. and stored at −80° C. until pro-inflammatory cytokines dosage.
Dorsal skin samples were removed, fixed and stored in formaldehyde (Rotr-Histofix 4%, Carl Roth, Karlsruhe, Allemagne) until histopathological analysis.
Kruskal-Wallis test followed possibly by the Mann-Whitney test was used to compare the different studied variables of the treated groups by comparison with the groups “Control” and “TPA+Control”. Significativity threshold was settled at P<0.05.

[2] = system: wound healing process; experiment: Healing after scarification of the skin in hairless Skh-1 mice; settings: 10 mg/kg/day topical in maize oil, 8 days
Protocol: 6 female mice hairless Skh-1 with an average weight of 20-25 g were used.
Each mouse was submitted to a scarification of the skin on each flank.
The daily topical treatment begun 1 hour before the scarification and was continued 8 days after the scarification.
Daily observations and photographs were performed in order to follow the healing process.

[3] = target: isoprenylation enzymes; settings: cited from earlier work
[4] = system: repaired extensor tendon, wound contraction, epithelialization; settings: in vivo; cited from earlier work
[5] = system: colon inflammation; experiment: Preventive anti-inflammatory effects in a rat colitis model (TNBS); assay type: in vivo; settings: for average lengths of the colons vs group TNBS/Control / microscopic score of the colons: 6 days after induction; for average macroscopic score of the colons (Mean ± ESM): colons removed 6 days after induction, n = 6; for rats average weights vs group TNBS/Control: J6
Protocol: Average macroscopic and microscopic scores of the colons sampled 6 days after the induction of colon inflammation were compared.
Colon inflammation was induced by a unique rectal administration of a 2,4,6-trinitrobenzen-sulfonic acid solution (TNBS, Fluka, France). TNBS was dissolved in 40° alcohol at a concentration of 50 mg/ml. Animals were anaesthetised intraperitoneally by 2 mg/kg of Calmivet (Vetoquinol, Lure, France) and 50 mg/kg of Ketamine (Ketamine 1000, Virbac, Carros, France). 0.4 ml of the TNBS solution was administered rectally and the rats were maintained during at least 30 minutes to avoid the releasing of the TNBS.
Kruskal-Wallis test followed possibly by the Mann-Whitney test was used to compare the different studied variables of the treated groups by comparison with the groups “Control” and “TNBS/Control”. Significativity threshold was settled at P<0.05.

[6] = at doses which may have clinical activity; cited from earlier work

Question: Which “average macroscopic score of skin inflammation vs group TPA+Limonene” value [1] does the source give for `C=C(C)[C@@H]1CC=C(CO)CC1` [Perillyl alcohol, (S)-4-Isopropenyl-1-cyclohexenylmethanol] here?
Answer: The value was “significantly lower”.

Question: And the “average macroscopic scores of skin inflammation vs group TPA+control” value [1]?
Answer: The value was “significantly lower”.

Question: What about the “average microscopic scores of skin inflammation vs group TPA+control” value [1] of the same compound?
Answer: The value was “significantly lower”.

Question: What about the “average serum level of IL-1β vs TPA+control group” value [1] of the same compound?
Answer: Its value is “tendency to be significantly lower”.

Question: And the “average serum level of IL-6 vs TPA+control group” value [1]?
Answer: The value was “significantly lower”.

Question: What about the “average serum level of TNF-α vs TPA+control group” value [1] of the same compound?
Answer: The value was “significantly lower”.

Question: And the “histopathological analysis of the skin samples” value [1]?
Answer: Its value is “skins were little inflammatory; showed non-specific inflammatory skin lesions without epidermis ulceration and with an inflammatory rarely marked”.

Question: And the “Average serum levels of IL-1β (Mean ± ESM)” value ([1]; TPA-treated mice)?
Answer: Its value is 5.3 ± 1.7 pg/mL.

Question: What about the “Average serum levels of IL-6 (Mean ± ESM)” value ([1]; TPA-treated mice) of the same compound?
Answer: Its value is 13.0 ± 3.8 pg/mL.

Question: What about the “Average serum levels of TNF-α (Mean ± ESM)” value ([1]; TPA-treated mice) of the same compound?
Answer: Its value is 80.6 ± 24.7 pg/mL.

Question: What about the “wound healing process in comparison with corn oil alone” value [2] of the same compound?
Answer: The value was “much better results”.

Question: And the “wound healing process in comparison with limonene” value [2]?
Answer: Its value is “better results”.

Question: And the “IC50 values, isoprenylation enzymes” value [3]?
Answer: Its value is “low mM range”.

Question: Which results are given for `CC(C)Cc1ccc([C@H](C)C(=O)O)cc1` [Ibuprofen, (S)-(+)-Ibuprofen, reference compound]?
Answer: breaking strength of the repaired extensor tendon, wound contraction, and epithelialization [4]: reduce; average macroscopic scores of the colons vs groups TNBS/Control and TNBS/Limonene 100 ([5]; 50 mg/kg daily oral): significantly lower; average lengths of the colons vs group TNBS/Control ([5]; 50 mg/kg daily oral): significantly lower; average macroscopic score of the colons (Mean ± ESM) ([5]; 50 mg/kg daily oral): 4.7 ± 2.7; rats average weights vs group TNBS/Control ([5]; Ibuprofen 50 mg/kg daily oral): not significantly different

Question: For S-limonene [reference compound], which “inhibition of the isoprenylation enzymes” value [3] is on record?
Answer: Its value is “weak inhibitors”.

Question: What does the source list for `C=C(C)[C@H]1CC=C(C)CC1` [Limonene, (4R)-1-methyl-4-isopropenylcyclohex-1-ene]?
Answer: average macroscopic scores of the colons vs groups TNBS/Control and TNBS/Limonene 100 ([5]; 10 mg/kg daily oral): significantly lower; average lengths of the colons vs group TNBS/Control ([5]; 10 mg/kg daily oral): significantly lower; microscopic score of the colons ([5]; 10 mg/kg daily oral): 2; average macroscopic score of the colons (Mean ± ESM) ([5]; 10 mg/kg daily oral): 6.5 ± 1.3; average lengths of the colons vs group TNBS/Control ([5]; 100 mg/kg daily oral): significantly lower; microscopic score of the colons ([5]; 100 mg/kg daily oral): 4; average macroscopic score of the colons (Mean ± ESM) ([5]; 100 mg/kg daily oral): 10.7 ± 2.7; rats average weights vs group TNBS/Control ([5]; Limonene 10 mg/kg daily oral): not significantly different; rats average weights vs group TNBS/Control ([5]; Limonene 100 mg/kg daily oral): not significantly different; circulating TNF-α level ([5]; at a concentration five times inferior to the concentrations of Ibuprofen): decreased; post-inflammatory tissue repair, compared with ibuprofen ([5]; oral administration, colons sampled 6 days after induction): induced post-inflammatory tissue repair; inhibition of the isoprenylation enzymes [3]: weak inhibitors; tolerance in cancer patients [6]: well tolerated

Question: For `C=C(C)[C@@H]1CC=C(C(=O)O)CC1` [perillic acid, reference compound], which “IC50 values, isoprenylation enzymes” value [3] is on record?
Answer: Its value is “low mM range”.
